Laboratory results reported in ChEMBL document CHEMBL3046082, “Control of Rice Blast Disease by Submerged Treatment with SSF-126” (J Pestic Sci, 1997).

Legend:
[1] = tested on: Pyricularia oryzae; assay: Antifungal activity against Magnaporthe oryzae in fourth-leaf stage of rice plant assessed as appressorial formation at 9 g/a after 24 hr (reference value: 90.4 +/- 5.6%); type: functional
[2] = tested on: Pyricularia oryzae; assay: Antifungal activity against Magnaporthe oryzae in fourth-leaf stage of rice plant assessed as spore germination at 36 g/a after 24 hr (reference value: 97.2 +/- 2.7%); type: functional
[3] = tested on: Leaf; assay: Drug level in Oryza sativa (rice) plant leaf at 18 g/a after 10 days; type: ADME; conditions: 240 h
[4] = tested on: Pyricularia oryzae; assay: Antifungal activity against Magnaporthe oryzae in fourth-leaf stage of rice plant assessed as spore germination at 9 g/a after 24 hr (reference value: 97.2 +/- 2.7%); type: functional
[5] = tested on: Pyricularia oryzae; assay: Antifungal activity against Magnaporthe oryzae in fourth-leaf stage of rice plant assessed as appressorial formation at 36 g/a after 24 hr (reference value: 90.4 +/- 5.6%); type: functional
[6] = tested on: Leaf; assay: Drug level in Oryza sativa (rice) plant leaf at 18 g/a up to 42 days; type: ADME; conditions: 1008 h
[7] = tested on: Pyricularia oryzae; assay: Antifungal activity against Magnaporthe oryzae in fourth-leaf stage of rice plant assessed as spore germination at 18 g/a after 24 hr (reference value: 97.2 +/- 2.7%); type: functional
[8] = tested on: Root; assay: Drug level in Oryza sativa (rice) plant root at 18 g/a up to 42 days; type: ADME; conditions: 1008 h
[9] = tested on: Pyricularia oryzae; assay: Antifungal activity against Magnaporthe oryzae in fourth-leaf stage of rice plant assessed as appressorial formation at 18 g/a after 24 hr (reference value: 90.4 +/- 5.6%); type: functional

CNC(=O)/C(=N\OC)c1ccccc1Oc1ccccc1 gave an Activity [1] of 92.2%, an Activity [2] of 96.4% and a Drug uptake [3] of 20 ppm. The Activity [4] was 97.1%, the Activity [5] was 91.9% and the Drug uptake [6] was less than 2 ppm. For the same molecule, the Activity [7] was 96.5%, the Drug uptake [8] was less than 2 ppm and the Activity [9] was 91.2%.
